Assay results from ChEMBL document CHEMBL1201862, “PubChem BioAssay data set” (2004).
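Values below derive from 48-hour exposures of cells grown in 96-well plates, with endpoints linearly interpolated between the two concentrations bracketing the appropriate inhibition level. Here, GI50 denotes the concentration required for 50% inhibition of growth.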 Calls of active or inactive are those of the source. No stated cut-off is given here; in the data, active = GI50 up to about 1.1 µM and inactive = higher.

Key:
Assay in all cases: inhibition of tumour cell growth, NCI panel, 48 h
A498 = test system: A498
EKVX = test system: EKVX
MDA-N = test system: MDA-N
DU-145 = test system: DU-145
SF-268 = test system: SF-268
MOLT-4 = test system: MOLT-4
SK-MEL-28 = test system: SK-MEL-28
SF-539 = test system: SF-539
RPMI-8226 = test system: RPMI-8226
SK-MEL-2 = test system: SK-MEL-2
MDA-MB-435 = test system: MDA-MB-435
PC-3 = test system: PC-3
UACC-257 = test system: UACC-257
COLO 205 = test system: COLO 205
K562 = test system: K562
HOP-62 = test system: HOP-62
SF-295 = test system: SF-295
OVCAR-4 = test system: OVCAR-4
SNB-75 = test system: SNB-75

| Structure (SMILES) | GI50 (A498) | GI50 (EKVX) | GI50 (MDA-N) | GI50 (DU-145) | GI50 (SF-268) | GI50 (MOLT-4) | GI50 (SK-MEL-28) | GI50 (SF-539) | GI50 (RPMI-8226) | GI50 (SK-MEL-2) | GI50 (MDA-MB-435) | GI50 (PC-3) | GI50 (UACC-257) | GI50 (COLO 205) | GI50 (K562) | GI50 (HOP-62) | GI50 (SF-295) | GI50 (OVCAR-4) | GI50 (SNB-75) |
| --- | --- | --- | --- | --- | --- | --- | --- | --- | --- | --- | --- | --- | --- | --- | --- | --- | --- | --- | --- |
| COc1cc(C(=O)N(C(=S)OCc2ccccn2)c2ccccc2)cc(OC)c1OC | 53.5 µM (inactive) | 12.9 µM (inactive) | 96.4 µM (inactive) | 33.8 µM (inactive) | > 100 µM (inactive) | 25.6 µM (inactive) | 92.3 µM (inactive) | 26.5 µM (inactive) | 26.8 µM (inactive) | > 100 µM (inactive) | > 100 µM (inactive) | 74.3 µM (inactive) | > 100 µM (inactive) | 53.5 µM (inactive) | 41.1 µM (inactive) |  |  |  |  |
| COc1cc(/C=C/c2nc(NC(=S)Nc3ccccc3)nnc2C)cc(OC)c1OC | 27.8 µM (inactive) | 22.4 µM (inactive) | 48.2 µM (inactive) | 34 µM (inactive) | 27.4 µM (inactive) | 25 µM (inactive) | > 100 µM (inactive) |  | 22.7 µM (inactive) | 14.5 µM (inactive) | 38.4 µM (inactive) | 14.3 µM (inactive) | 30.3 µM (inactive) | 15.5 µM (inactive) | 29.9 µM (inactive) | 35.2 µM (inactive) | 50.1 µM (inactive) | 18.7 µM (inactive) |  |
| COc1ccc(/C(Cl)=C(\C#N)c2ccc(OC)c(OC)c2)cc1OC | > 100 µM (inactive) | 21.3 µM (inactive) | > 100 µM (inactive) | > 100 µM (inactive) |  | 78.9 µM (inactive) |  | > 100 µM (inactive) | 15 µM (inactive) | 96.2 µM (inactive) | 87.7 µM (inactive) | 79.1 µM (inactive) | > 100 µM (inactive) | 44.5 µM (inactive) | 48.9 µM (inactive) | 43.7 µM (inactive) | 61.5 µM (inactive) | 81.5 µM (inactive) |  |
| CCON1CC(C(=O)OC)=C(O)C1=O | > 100 µM (inactive) | > 100 µM (inactive) | > 100 µM (inactive) | > 100 µM (inactive) | > 100 µM (inactive) | > 100 µM (inactive) | > 100 µM (inactive) |  | > 100 µM (inactive) | > 100 µM (inactive) | > 100 µM (inactive) | > 100 µM (inactive) | > 100 µM (inactive) | > 100 µM (inactive) | > 100 µM (inactive) | > 100 µM (inactive) | > 100 µM (inactive) | > 100 µM (inactive) | > 100 µM (inactive) |
| CCOC(=O)c1c(N)nn2c1cc1cccccc12 | 29.4 µM (inactive) | 16.3 µM (inactive) | 41.5 µM (inactive) | 32.1 µM (inactive) | 24.5 µM (inactive) | 25.7 µM (inactive) | 29.9 µM (inactive) | 51.5 µM (inactive) | 18.3 µM (inactive) | 19.1 µM (inactive) | 31.8 µM (inactive) | 23.6 µM (inactive) | 27.4 µM (inactive) | 31.9 µM (inactive) |  | 29.8 µM (inactive) | 25.1 µM (inactive) | 33.6 µM (inactive) |  |
| CC(C)[C@H]1NC(=O)[C@H]2N=C(O[C@@H]2C)[C@@H]2CCCN2C(=O)[C@H](Cc2ccccc2)NC(=O)[C@@H]2CSC(=N2)[C@@H](Cc2ccccc2)NC(=O)[C@@H]2CSC1=N2 | > 100 µM (inactive) | > 100 µM (inactive) | > 100 µM (inactive) | > 100 µM (inactive) | > 100 µM (inactive) | 75.7 µM (inactive) | 75.3 µM (inactive) | > 100 µM (inactive) | 20 µM (inactive) | 85.9 µM (inactive) | 52.8 µM (inactive) | 37.5 µM (inactive) | > 100 µM (inactive) | > 100 µM (inactive) | 92.9 µM (inactive) | > 100 µM (inactive) | > 100 µM (inactive) | 38.2 µM (inactive) |  |
| CC(=O)c1ccc2c3c1O[C@H]1c4[nH]c5ccccc5c4C[C@@]4(O)[C@@H](C2)N(CC2CC2)CC[C@]314 | 0.333 µM (active) | 20.2 µM (inactive) | 17.7 µM (inactive) | 20.6 µM (inactive) | 13.1 µM (inactive) | 17.1 µM (inactive) | 8.17 µM (inactive) | 13.6 µM (inactive) | 18.3 µM (inactive) | 16.6 µM (inactive) | 18.6 µM (inactive) | 10.1 µM (inactive) | 16.8 µM (inactive) | 14.9 µM (inactive) | 16.8 µM (inactive) | 21 µM (inactive) | 15.6 µM (inactive) | 20.6 µM (inactive) |  |
| Clc1ccc(-c2ccc(-c3nnc(CCc4nnc(-c5ccc(-c6ccc(Cl)cc6)o5)o4)o3)o2)cc1 | 30.5 µM (inactive) | > 85.3 µM (inactive) | > 100 µM (inactive) | > 100 µM (inactive) | 28.6 µM (inactive) | 3.81 µM (inactive) | > 100 µM (inactive) | 27.3 µM (inactive) | 34 µM (inactive) | 23.4 µM (inactive) | > 100 µM (inactive) | > 100 µM (inactive) | > 100 µM (inactive) | > 100 µM (inactive) | 7.93 µM (inactive) | > 50.8 µM (inactive) | 31.5 µM (inactive) | > 100 µM (inactive) |  |
| C/C=C\C(CC(=O)NCC(=O)c1c[nH]c2ccccc12)CC(=O)OC (stereo unspecified) | > 100 µM (inactive) | > 100 µM (inactive) | > 100 µM (inactive) | > 100 µM (inactive) | > 100 µM (inactive) | > 100 µM (inactive) | > 100 µM (inactive) |  | > 100 µM (inactive) | > 100 µM (inactive) | > 100 µM (inactive) | > 100 µM (inactive) | > 100 µM (inactive) | > 100 µM (inactive) | > 100 µM (inactive) | > 100 µM (inactive) | > 100 µM (inactive) | > 100 µM (inactive) | > 100 µM (inactive) |
| N=C(N)SCCSC(=N)N | > 100 µM (inactive) | 47 µM (inactive) | > 100 µM (inactive) | > 100 µM (inactive) | > 100 µM (inactive) | > 100 µM (inactive) | > 100 µM (inactive) |  | > 100 µM (inactive) |  | > 100 µM (inactive) | > 100 µM (inactive) | > 100 µM (inactive) | > 100 µM (inactive) | > 100 µM (inactive) | > 100 µM (inactive) | > 100 µM (inactive) | > 100 µM (inactive) | > 100 µM (inactive) |
| c1ccc(NCCSc2nc3ccccc3s2)cc1 | 26.5 µM (inactive) | 29.5 µM (inactive) | 36.9 µM (inactive) | 97.1 µM (inactive) | > 100 µM (inactive) | 24.9 µM (inactive) | > 100 µM (inactive) |  | 26.5 µM (inactive) | 30.8 µM (inactive) | 43.3 µM (inactive) | 55.2 µM (inactive) | 22.1 µM (inactive) | 22.4 µM (inactive) | 34 µM (inactive) | > 100 µM (inactive) | > 100 µM (inactive) | 49.8 µM (inactive) | > 100 µM (inactive) |
| O=C1C(Cl)=C(NCCN2CCOCC2)C(=O)c2ncccc21 | 2.97 µM (inactive) | 1.75 µM (inactive) | 0.2 µM (active) | 1.66 µM (inactive) | 1.99 µM (inactive) | 1.51 µM (inactive) | 1.84 µM (inactive) | 1.72 µM (inactive) |  |  | 0.195 µM (active) | 2.59 µM (inactive) | 1.71 µM (inactive) |  | 0.378 µM (active) | 2.12 µM (inactive) | 1.82 µM (inactive) |  | 1.35 µM (inactive) |
| CC(=O)c1c(-c2ccc(Cl)cc2)c(C#N)c(=S)n(C2OC(CO)C(O)C(O)C2O)c1C (stereo unspecified) | 50.7 µM (inactive) |  | 30.8 µM (inactive) | > 100 µM (inactive) | 53.3 µM (inactive) | 21.6 µM (inactive) | 34.1 µM (inactive) | 46.7 µM (inactive) |  | 28.2 µM (inactive) | 37.8 µM (inactive) | 31.5 µM (inactive) | 82.4 µM (inactive) | 32.5 µM (inactive) | 32.4 µM (inactive) | 65 µM (inactive) | 54.6 µM (inactive) | 38.5 µM (inactive) | > 100 µM (inactive) |
| CN(C(=O)Cc1cccc(N=C=S)c1)[C@H]1CCCC[C@@H]1N1CCCC1 | 17.2 µM (inactive) | 18.1 µM (inactive) | 14.1 µM (inactive) | 14.6 µM (inactive) | 20 µM (inactive) | 5.24 µM (inactive) | 16.1 µM (inactive) |  | 10.9 µM (inactive) | 18.7 µM (inactive) | 13.9 µM (inactive) | 15.2 µM (inactive) | 13.5 µM (inactive) | 11.8 µM (inactive) | 7.59 µM (inactive) | 16.3 µM (inactive) | 27.6 µM (inactive) | 14.7 µM (inactive) | 14.1 µM (inactive) |
| CC(C)=CC(=O)c1[nH]c2ccccc2c1CC(=O)NCCc1cn(C(c2ccccc2)(c2ccccc2)c2ccccc2)cn1 | 4.22 µM (inactive) | 3.48 µM (inactive) | 2.91 µM (inactive) | 5.13 µM (inactive) | 16.8 µM (inactive) | 2.26 µM (inactive) | 3.4 µM (inactive) | 2.69 µM (inactive) | 1.98 µM (inactive) | 1.81 µM (inactive) | 2.06 µM (inactive) | 2.46 µM (inactive) | 3.67 µM (inactive) | 1.81 µM (inactive) | 2.99 µM (inactive) | 11.9 µM (inactive) | 4.57 µM (inactive) | 3.86 µM (inactive) |  |
| Oc1ccc2ccccc2c1NCn1nc(CCCCCCCCc2nn(CNc3c(O)ccc4ccccc34)c(=S)o2)oc1=S | > 100 µM (inactive) | > 100 µM (inactive) | 37.6 µM (inactive) | > 100 µM (inactive) | > 100 µM (inactive) | > 100 µM (inactive) | > 100 µM (inactive) |  | 39.6 µM (inactive) | > 100 µM (inactive) | 38.7 µM (inactive) | > 100 µM (inactive) | > 100 µM (inactive) | > 100 µM (inactive) | > 100 µM (inactive) | > 100 µM (inactive) | > 100 µM (inactive) | > 100 µM (inactive) | > 100 µM (inactive) |
